Legend:
Format in all cases: in vivo
[1] = system: pigweed (Amaranthus retroflexus); assay: Test A postemergence
Procedure, shortened: (§1)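 Greenhouse, ~10 d after spray; visual injury vs untreated controls, 0 = no effect, 100 = complete control. Preemergence: directed soil spray over planted seeds. Postemergence: plants 2–10 cm, 1–2 leaf stage. Loam/sand blend. Compound in non-phytotoxic solvent with surfactant.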

[2] = system: Galium (catchweed bedstraw, Galium aparine); assay: Test A postemergence
Procedure, shortened: as §1

[3] = system: barnyardgrass (Echinochloa crus-galli); assay: Test A postemergence; conditions: for Barnyardgrass plant response rating: 125 g ai/ha, postemergence, visual injury rating on 0 to 100 scale (0 no effect, 100 complete control), approx. 10 d; for Plant response rating, Barnyardgrass: Postemergence, 500 g ai/ha, 0 to 100 scale where 0 is no effect and 100 is complete control
Procedure, shortened: as §1

[4] = system: wheat (Triticum aestivum); assay: Test A postemergence
Procedure, shortened: as §1

corn (Zea mays) = assay: Test A postemergence
Procedure, shortened: as §1

[5] = system: ragweed (common ragweed, Ambrosia elatior); assay: Test A postemergence
Procedure, shortened: as §1

[6] = system: blackgrass (Alopecurus myosuroides); assay: Test A postemergence; conditions: for Blackgrass plant response rating: 125 g ai/ha, postemergence, visual injury rating on 0 to 100 scale (0 no effect, 100 complete control), approx. 10 d; for Plant response rating, Blackgrass: Postemergence, 500 g ai/ha, 0 to 100 scale where 0 is no effect and 100 is complete control
Procedure, shortened: as §1

Kochia (Kochia scoparia) [7] = assay: Test A postemergence
Procedure, shortened: as §1

[8] = system: giant foxtail (Setaria faberii); assay: Test A postemergence
Procedure, shortened: as §1

[9] = system: ryegrass, Italian (Italian ryegrass, Lolium multiflorum); assay: Test A postemergence
Procedure, shortened: as §1

[10] = system: pigweed (Amaranthus retroflexus); assay: Test A preemergence; conditions: Preemergence; for Plant response rating, Pigweed: 125 g ai/ha, visual injury after approximately 10 d, 0 to 100 scale where 0 is no effect and 100 is complete control; for Pigweed plant response rating (0 to 100 scale, 0 is no effect, 100 is complete control): 500 g ai/ha, visual injury approx. 10 d
[11] = system: barnyardgrass (Echinochloa crus-galli); assay: Test A preemergence; conditions: Preemergence; for Plant response rating, Barnyardgrass: 125 g ai/ha, visual injury after approximately 10 d, 0 to 100 scale where 0 is no effect and 100 is complete control; for Barnyardgrass plant response rating (0 to 100 scale, 0 is no effect, 100 is complete control): 500 g ai/ha, visual injury approx. 10 d
Procedure, shortened: as §1

[12] = system: ragweed (common ragweed, Ambrosia elatior); assay: Test A preemergence; conditions: Preemergence; for Plant response rating, Ragweed: 125 g ai/ha, visual injury after approximately 10 d, 0 to 100 scale where 0 is no effect and 100 is complete control; for Ragweed plant response rating (0 to 100 scale, 0 is no effect, 100 is complete control): 500 g ai/ha, visual injury approx. 10 d
Procedure, shortened: as §1

Kochia (Kochia scoparia) [13] = assay: Test A preemergence; conditions: Preemergence; for Plant response rating, Kochia: 125 g ai/ha, visual injury after approximately 10 d, 0 to 100 scale where 0 is no effect and 100 is complete control; for Kochia plant response rating (0 to 100 scale, 0 is no effect, 100 is complete control): 500 g ai/ha, visual injury approx. 10 d
Procedure, shortened: as §1

[14] = system: giant foxtail (Setaria faberii); assay: Test A preemergence; conditions: Preemergence; for Plant response rating, Foxtail, Giant: 125 g ai/ha, visual injury after approximately 10 d, 0 to 100 scale where 0 is no effect and 100 is complete control; for Foxtail, Giant plant response rating (0 to 100 scale, 0 is no effect, 100 is complete control): 500 g ai/ha, visual injury approx. 10 d
Procedure, shortened: as §1

[15] = system: ryegrass, Italian (Italian ryegrass, Lolium multiflorum); assay: Test A preemergence; conditions: Preemergence; for Plant response rating, Ryegrass, Italian: 125 g ai/ha, visual injury after approximately 10 d, 0 to 100 scale where 0 is no effect and 100 is complete control; for Ryegrass, Italian plant response rating (0 to 100 scale, 0 is no effect, 100 is complete control): 500 g ai/ha, visual injury approx. 10 d
Procedure, shortened: as §1

rice (Oryra sativa) = assay: Test B flooded paddy test; conditions: Flood, 500 g ai/ha; 0 to 100 scale where 0 is no effect and 100 is complete control; 13 to 15 d
Procedure, shortened: (§2)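 Plants at 2-leaf stage flooded to 3 cm above soil, with compounds applied directly to paddy water and that depth maintained. Plants kept in greenhouse 13–15 d. Visual rating versus controls on a 0 (no effect) to 100 (complete control) scale.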

[16] = system: barnyardgrass (Echinochloa crus-galli); assay: Test B flooded paddy test; conditions: Flood, 500 g ai/ha; 0 to 100 scale where 0 is no effect and 100 is complete control; 13 to 15 d
Procedure, shortened: as §2

[17] = system: ducksalad (Heteranthera limosa); assay: Test B flooded paddy test; conditions: Flood, 500 g ai/ha; 0 to 100 scale where 0 is no effect and 100 is complete control; 13 to 15 d
Procedure, shortened: as §2

[18] = system: sedge, umbrella (small-flower umbrella sedge, Cyperus difformis); assay: Test B flooded paddy test; conditions: Flood, 500 g ai/ha; 0 to 100 scale where 0 is no effect and 100 is complete control; 13 to 15 d
Procedure, shortened: as §2

[19] = 125 g ai/ha, postemergence, visual rating after approx. 10 d, 0 to 100 scale (0 no effect, 100 complete control)
[20] = Postemergence, 500 g ai/ha, 0 to 100 scale where 0 is no effect and 100 is complete control

Row | SMILES | Plant response rating, Pigweed [1, 19] | Plant response rating, Pigweed [1, 20] | Plant response rating, Galium [2, 19] | Plant response rating, Galium [2, 20] | Barnyardgrass plant response rating [3] | Plant response rating, Barnyardgrass [3] | Plant response rating, Wheat [4, 19] | Plant response rating, Wheat [4, 20] | Plant response rating, Corn (corn (Zea mays); [19]) | Plant response rating, Corn (corn (Zea mays); [20]) | Plant response rating, Ragweed [5, 19] | Plant response rating, Ragweed [5, 20] | Blackgrass plant response rating [6] | Plant response rating, Blackgrass [6] | Plant response rating, Kochia (Kochia (Kochia scoparia) [7]; [19]) | Plant response rating, Kochia (Kochia (Kochia scoparia) [7]; [20]) | Plant response rating, Foxtail, Giant [8, 19] | Plant response rating, Foxtail, Giant [8, 20] | Plant response rating, Ryegrass, Italian [9, 19] | Plant response rating, Ryegrass, Italian [9, 20] | further results
1 | O=C1NCC(c2ccc(Oc3ccccc3)cc2)C1C(=O)Nc1ccc(F)c(F)c1F (racemic) [Compound 537] | 0 | 0 | 0 | 0 | 0 | 0 | 0 | 0 | 0 | 0 | 0 | 0 | 0 | 0 | 0 | 0 | 0 | 0 | 0 | 0 | Plant response rating, Pigweed [10]: 0; Pigweed plant response rating (0 to 100 scale, 0 is no effect, 100 is complete control) [10]: 0; Plant response rating, Barnyardgrass [11]: 0; Barnyardgrass plant response rating (0 to 100 scale, 0 is no effect, 100 is complete control) [11]: 0; Plant response rating, Ragweed [12]: 0; Ragweed plant response rating (0 to 100 scale, 0 is no effect, 100 is complete control) [12]: 0; Plant response rating, Kochia (Kochia (Kochia scoparia) [13]): 0; Kochia plant response rating (0 to 100 scale, 0 is no effect, 100 is complete control) (Kochia (Kochia scoparia) [13]): 0; Plant response rating, Foxtail, Giant [14]: 0; Foxtail, Giant plant response rating (0 to 100 scale, 0 is no effect, 100 is complete control) [14]: 0; Plant response rating, Ryegrass, Italian [15]: 0; Ryegrass, Italian plant response rating (0 to 100 scale, 0 is no effect, 100 is complete control) [15]: 0; Plant response rating, Rice (rice (Oryra sativa)): 20; Plant response rating, Barnyardgrass [16]: 30; Plant response rating, Ducksalad [17]: 0; Plant response rating, Sedge, Umbrella [18]: 50
2 | O=C1NCC(c2ccc(Oc3ccccc3)cc2)C1C(=O)Nc1ccccc1Cl (racemic) [Compound 538] | 0 | 0 | 0 | 0 | 0 | 0 | 0 | 0 | 0 | 0 | 0 | 0 | 0 | 0 | 0 | 0 | 0 | 0 | 0 | 0 | Plant response rating, Pigweed [10]: 0; Pigweed plant response rating (0 to 100 scale, 0 is no effect, 100 is complete control) [10]: 0; Plant response rating, Barnyardgrass [11]: 0; Barnyardgrass plant response rating (0 to 100 scale, 0 is no effect, 100 is complete control) [11]: 0; Plant response rating, Ragweed [12]: 0; Ragweed plant response rating (0 to 100 scale, 0 is no effect, 100 is complete control) [12]: 0; Plant response rating, Kochia (Kochia (Kochia scoparia) [13]): 0; Kochia plant response rating (0 to 100 scale, 0 is no effect, 100 is complete control) (Kochia (Kochia scoparia) [13]): 0; Plant response rating, Foxtail, Giant [14]: 0; Foxtail, Giant plant response rating (0 to 100 scale, 0 is no effect, 100 is complete control) [14]: 0; Plant response rating, Ryegrass, Italian [15]: 0; Ryegrass, Italian plant response rating (0 to 100 scale, 0 is no effect, 100 is complete control) [15]: 0; Plant response rating, Rice (rice (Oryra sativa)): 0; Plant response rating, Barnyardgrass [16]: 0; Plant response rating, Ducksalad [17]: 0; Plant response rating, Sedge, Umbrella [18]: 0
